From publication PMC4741387 (Biochemistry, 2015) come the findings set out here.

Broadly, the Kd is the constant that tells how readily two partners part at equilibrium. A high value points to lower affinity.

Holding throughout (assay): fluorescence titration of rhodamine-labelled protein
Test [1] concerns the target T1, (K229C,E302C)PBP labeled with 6-IATR (PstS phosphate binding protein) (Escherichia coli, UniProt P0AG82, E327C/G165A/K254C).
T1 sequence (P0AG82 26-346 G165A/K254C/E327C): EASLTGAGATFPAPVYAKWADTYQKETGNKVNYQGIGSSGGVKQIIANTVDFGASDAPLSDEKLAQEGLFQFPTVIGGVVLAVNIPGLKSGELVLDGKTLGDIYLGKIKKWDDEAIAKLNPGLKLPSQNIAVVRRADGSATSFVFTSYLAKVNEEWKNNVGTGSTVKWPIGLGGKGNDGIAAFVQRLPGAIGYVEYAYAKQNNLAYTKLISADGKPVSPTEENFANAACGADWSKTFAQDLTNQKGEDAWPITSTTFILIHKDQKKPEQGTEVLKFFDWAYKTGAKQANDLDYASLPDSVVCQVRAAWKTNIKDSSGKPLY

The target of test [2] is T2, rho-PBP: (A17C,A197C)PBP labeled with 6-IATR (PstS phosphate binding protein) (Escherichia coli, UniProt P0AG82, A222C/A42C/R160A).
T2 sequence (P0AG82 26-346 A42C/R160A/A222C): T1 sequence (P0AG82 26-346 G165A/K254C/E327C) with A17C, R135A, A140G, A197C, C229K, C302E

Test [3] has as its target T3, rho-PBP: (A17C,A197C)PBP labeled with 6-IATR (PstS phosphate binding protein) (Escherichia coli, UniProt P0AG82, A222C/A42C/G165A).
T3 sequence (P0AG82 26-346 A42C/G165A/A222C): T1 sequence (P0AG82 26-346 G165A/K254C/E327C) with A17C, A197C, C229K, C302E

Test [4] concerns the target T4, rho-PBP: (A17C,A197C)PBP labeled with 6-IATR (PstS phosphate binding protein) (Escherichia coli, UniProt P0AG82, A222C/A42C/G165A/S189K/S64D).
T4 sequence (P0AG82 26-346 A42C/S64D/G165A/S189K/A222C): T1 sequence (P0AG82 26-346 G165A/K254C/E327C) with A17C, S39D, S164K, A197C, C229K, C302E

Test [5] concerns the target T5, rho-PBP: (A17C,A197C)PBP labeled with 6-IATR (PstS phosphate binding protein) (Escherichia coli, UniProt P0AG82, A222C/A42C/T35A).
T5 sequence (P0AG82 26-346 T35A/A42C/A222C): T1 sequence (P0AG82 26-346 G165A/K254C/E327C) with T10A, A17C, A140G, A197C, C229K, C302E

Test [6] addresses T6, rho-PBP: (A17C,A197C)PBP labeled with 6-IATR (PstS phosphate binding protein) (Escherichia coli, UniProt P0AG82, A222C/A42C/S63A).
T6 sequence (P0AG82 26-346 A42C/S63A/A222C): T1 sequence (P0AG82 26-346 G165A/K254C/E327C) with A17C, S38A, A140G, A197C, C229K, C302E

Substitutions are numbered along the chain they refer to.

Take `O=P(O)(O)O` [inorganic phosphate]: the dissociation constant (Kd) in test [1] is 220 ± 11 µM; in test [2] it was less than 1 µM; in test [3], 70 ± 17 µM; in test [4], 40 ± 4 µM; in test [5], 32 ± 2 µM; in test [6], 68 ± 9 µM.
